Data: US7183108B1, “Selection and uses of lactic acid bacteria strains modulating non-specific immunity” (Compagnie Gervais Danone, priority 1998, dated 2007)

Experiments:
Type in all cases: cell-based, human
Caco-2 cells [1] = assay: Production of TNF-α and IL-1β by Caco-2 cells (ELISA of culture supernatants); conditions: Caco-2 preactivated with CYTOMIX, with total extract of L. casei; L-NAME 1 mM or PDTC 10 pM (FIG. 3)
Experimental: (§1) Each of the 2 lines was seeded at 2×10^6 cells/well in 24-well plates, in DMEM medium supplemented with 5% of SVF, with 100 U/ml of penicillin, with 100 μg/ml of streptomycin and with 2 mM of L-glutamine. The cells are then incubated for 24 hours in the presence of CYTOMIX, and then for a further 24 hours in the presence of the total extracts of L. casei. For certain experiments, L-NAME (1 mM) or an inhibitor of the NFκB transduction pathway (PDTC: 10 pM) are added at the same time as the bacterial extracts. The culture supernatants are then recovered and the cytokine concentration thereof is determined by ELISA.

Caco-2 cells [2] = assay: Production of nitric oxide (nitrite, GRIESS method) by Caco-2 colon epithelial cell line; conditions: Caco-2, L-NAME 1 mM, in the presence or absence of total extract of L. casei (3% v/v) (FIG. 2)
Experimental: (§2) Each of the 2 lines was seeded at 2×10^5 cells/well in 96-well plates, in DMEM medium supplemented with 5% of SVF, with 100 U/ml of penicillin, with 100 μg/ml of streptomycin and with 2 mM of L-glutamine.
(§3) The cells are pre-incubated for 24 hours at 37° C., 5% CO2, in the presence of CYTOMIX (IL-1β: 10 ng/ml, TNF-α: 25 ng/ml and γ-IFN: 10^3 U/ml mixture). The cells are then incubated for a further 24 hours in the presence or absence of increasing amounts of total extracts of L. casei (in % vol/vol).
(§4) After incubation, the culture supernatants are recovered and frozen, before determining the nitrite concentration. For certain experiments, L-NAME (1 mM), which is an analogue of L-arginine and constitutes a competitive inhibitor specific for NO-synthases, is added at the same time as the extracts of L. casei.
(§5) The amount of NO produced is evaluated by assaying, in the culture supernatants, the stable derivatives of this radical after reaction thereof in aqueous medium: the nitrites and nitrates. The nitrates are, initially, reduced to nitrites with bacteria expressing nitrate reductase, and the nitrites are then assayed using the GRIESS method. […] The absorbances are then determined at 540 nm using a MULTISCAN MCC340 reader (LABSYSTEM).

HT-29 cells [3] = assay: Production of TNF-α and IL-1β by HT-29 cells (ELISA of culture supernatants); conditions: HT-29 preactivated with CYTOMIX, with total extract of L. casei; L-NAME 1 mM or PDTC 10 pM (FIG. 3)
Experimental: as §1

HT-29 cells [4] = assay: Production of nitric oxide (nitrite, GRIESS method) by HT-29 colon epithelial cell line; conditions: HT-29, L-NAME 1 mM, in the presence or absence of total extract of L. casei (3% v/v) (FIG. 2)
Experimental: as §2, §3, §4, §5

COC(=O)[C@@H](N)CCCNC(=N)N[N+](=O)[O-] [L-NAME]
inhibited: effect of inhibitor on production of TNF-α (Caco-2 cells [1]) | effect on CYTOMIX-induced production of NO (Caco-2 cells [2]) | effect of inhibitor on production of TNF-α (HT-29 cells [3]) | effect on CYTOMIX-induced production of NO (HT-29 cells [4])

S=C(S)N1CCCC1 [PDTC]
inhibited: effect of inhibitor on production of TNF-α (Caco-2 cells [1]) | effect of inhibitor on production of TNF-α (HT-29 cells [3])
